Assay results from patent publication US20080312211A1, “Antibacterial Pyrrolopyridines, Pyrrolopyrimidines and Pyrroloazepines-154” (ASTRAZENECA AB, priority 2005, published 2008).

How the values were obtained:
Streptococcus pneumoniae = assay: Bacterial susceptibility testing in liquid media (MIC); assay type: cell-based; set-up: unit not given here; conditions: lowest concentration reducing growth by 80% or more; 37 degrees C., 24 hrs
Method: Compounds were tested for antimicrobial activity by susceptibility testing in liquid media. Compounds were dissolved in dimethylsulfoxide and tested in 10 doubling dilutions in the susceptibility assays. The organisms used in the assay were grown overnight on suitable agar media and then suspended in a liquid medium appropriate for the growth of the organism. The suspension was a 0.5 McFarland and a further 1 in 10 dilution was made into the same liquid medium to prepare the final organism suspension in 100 μL. Plates were incubated under appropriate conditions at 37 degrees C. for 24 hrs prior to reading. The Minimum Inhibitory Concentration was determined as the lowest drug concentration able to reduce growth by 80% or more.

| melting point | MIC (Streptococcus pneumoniae) | SMILES |
| --- | --- | --- |
| > 345 °C (dec.) | – | COC(=O)c1cnc(N2CCC(n3c(=O)[nH]c4c(C#N)c(C)[nH]c4c3=O)CC2)s1 [Example 1, Methyl 2-[4-(7-cyano-6-methyl-2,4-dioxo-1,2,4,5-tetrahydro-3H-pyrrolo[3,2-d]pyrimidin-3-yl)piperidin-1-yl]-1,3-thiazole-5-carboxylate] |
| – | 50 | COC1CN(c2ncc(C(=O)O)s2)CCC1n1ccc2c(Cl)c(C)[nH]c2c1=O (stereo not drawn) [Example 22, 2-[3,4-cis-4-(3-Chloro-2-methyl-7-oxo-1,7-dihydro-6H-pyrrolo[2,3-c]pyridin-6-yl)-3-methoxypiperidin-1-yl]-1,3-thiazole-5-carboxylic acid] |
